Data as given in PubChem BioAssay AID248 (DTP/NCI, 2004).
Where “and” joins values, the source holds several entries; their conditions need not be identical. Identical values can stand only once. Toxic doses and inconclusive results are not listed. Rule as the data show it: active = T/C of 150% or more; inactive = T/C below 125%.

Test system: L1210 leukemia ip in BDF1 mice, survival T/C
Assay: NCI In Vivo Anticancer Drug Screen. Data for tumor model L1210 Leukemia (intraperitoneal) in B6D2F1 (BDF1) mice
Conditions: endpoint: mean survival time, higher = longer survival
Procedure: The antitumor activity of compounds was measured in mice bearing transplantable tumors. Survival or tumor size were measured and the results are expressed as the measurement made in the treated group (T) divided by the measurement made in the vehicle treated control group (C). The tumor model used in this assay is L1210 Leukemia (intraperitoneal) in B6D2F1 (BDF1) mice

[1] = dose: 100.0 mg/kg/injection, schedule: Q01DX009 (ip), vehicle: saline with Tween-80
[2] = dose: 100.0 mg/kg/injection, schedule: Q04DX003 (ip), vehicle: Klucel (hydroxypropylcellulose) (HPC)
[3] = dose: 200.0 mg/kg/injection, schedule: Q01DX009 (ip), vehicle: saline with Tween-80
[4] = dose: 200.0 mg/kg/injection, schedule: Q04DX003 (ip), vehicle: Klucel (hydroxypropylcellulose) (HPC)
[5] = dose: 400.0 mg/kg/injection, schedule: Q01DX009 (ip), vehicle: saline with Tween-80
[6] = dose: 400.0 mg/kg/injection, schedule: Q04DX003 (ip), vehicle: Klucel (hydroxypropylcellulose) (HPC)
[7] = dose: 25.0 mg/kg/injection, schedule: Q01DX009 (ip), vehicle: saline with Tween-80
[8] = dose: 50.0 mg/kg/injection, schedule: Q01DX009 (ip), vehicle: saline with Tween-80
[9] = dose: 100.0 mg/kg/injection, schedule: Q04DX002 (ip), vehicle: saline with Tween-80
[10] = dose: 200.0 mg/kg/injection, schedule: Q04DX002 (ip), vehicle: saline with Tween-80
[11] = dose: 400.0 mg/kg/injection, schedule: Q04DX002 (ip), vehicle: saline with Tween-80

Measured: T/C

CCOC(=O)c1ccc(NC(=S)NC(=O)c2ccco2)cc1
inactive: [1] 98 % of control | [2] 102 % of control | [3] 98 % of control | [4] 98 % of control | [5] 98 % of control | [6] 96 % of control

CC(=O)c1ccccc1Cc1cccc2c(Cl)cccc12
inactive: [2] 95 % of control | [4] 100 % of control | [6] 88 % of control

CC(=O)Nc1cc(Cl)ccc1C
inactive: [7] 93 % of control | [8] 90 % of control | dose: 50.0 mg/kg/injection, schedule: Q04DX003 (ip), vehicle: saline 95 % of control | [1] 89 % of control | dose: 100.0 mg/kg/injection, schedule: Q04DX003 (ip), vehicle: saline 97 % of control | dose: 200.0 mg/kg/injection, schedule: Q04DX003 (ip), vehicle: saline 100 % of control

COc1ccc(OC)c(NC(=O)c2ccc(Cl)c(Cl)c2)c1
inactive: dose: 100.0 mg/kg/injection, schedule: Q01DX001 (ip), vehicle: saline with Tween-80 106 % of control | [1] 93 % of control and 98 % of control | [9] 97 % of control and 99 % of control | dose: 100.0 mg/kg/injection, schedule: Q04DX003 (ip), vehicle: saline with Tween-80 105 % of control | dose: 200.0 mg/kg/injection, schedule: Q01DX001 (ip), vehicle: saline with Tween-80 101 % of control | [3] 97 % of control and 102 % of control | [10] 108 % of control and 89 % of control | dose: 200.0 mg/kg/injection, schedule: Q04DX003 (ip), vehicle: saline with Tween-80 108 % of control | dose: 400.0 mg/kg/injection, schedule: Q01DX001 (ip), vehicle: saline with Tween-80 108 % of control | [5] 111 % of control | [11] 104 % of control and 91 % of control | dose: 400.0 mg/kg/injection, schedule: Q04DX003 (ip), vehicle: saline with Tween-80 89 % of control

CC1CCC2(NC1)OC1CC3C4CCC5CC(OC6OC(CO)C(OC7OC(CO)C(O)C(OC8OCC(O)C(O)C8O)C7OC7OC(CO)C(O)C(O)C7O)C(O)C6O)CCC5(C)C4CCC3(C)C1C2C (stereo unspecified)
inactive: dose: 12.5 mg/kg/injection, schedule: Q01DX009 (ip), vehicle: saline with Tween-80 93 % of control | [7] 90 % of control | [8] 94 % of control | dose: 100.0 mg/kg/injection, schedule: Q01DX001 (sc), vehicle: steriod suspending solution 95 % of control | dose: 200.0 mg/kg/injection, schedule: Q01DX001 (sc), vehicle: steriod suspending solution 103 % of control | dose: 400.0 mg/kg/injection, schedule: Q01DX001 (sc), vehicle: steriod suspending solution 97 % of control

CC1OC1COC1COC2C(OCC3OC3C)COC12 (stereo unspecified)
inactive: dose: 100.0 mg/kg/injection, schedule: Q01DX001 (ip), vehicle: saline 106 % of control | dose: 200.0 mg/kg/injection, schedule: Q01DX001 (ip), vehicle: saline 106 % of control | dose: 400.0 mg/kg/injection, schedule: Q01DX001 (ip), vehicle: saline 101 % of control

CCCCCCCCCCCC(=O)[O][Sn]([CH2]C)([CH2]C)[O]C(=O)CCCCCCCCCCC
inactive: dose: 6.25 mg/kg/injection, schedule: Q04DX003 (ip), vehicle: saline 112 % of control | dose: 8.75 mg/kg/injection, schedule: Q01DX009 (ip), vehicle: saline with Tween-80 98 % of control | dose: 12.5 mg/kg/injection, schedule: Q01DX001 (ip), vehicle: saline 103 % of control | dose: 12.5 mg/kg/injection, schedule: Q04DX003 (ip), vehicle: saline 105 % of control | dose: 17.5 mg/kg/injection, schedule: Q01DX009 (ip), vehicle: saline with Tween-80 121 % of control | dose: 25.0 mg/kg/injection, schedule: Q01DX001 (ip), vehicle: saline 109 % of control | dose: 25.0 mg/kg/injection, schedule: Q04DX003 (ip), vehicle: saline 112 % of control | dose: 35.0 mg/kg/injection, schedule: Q04DX003 (ip), vehicle: acetone 106 % of control

CC1(C)Cc2cccc(Br)c2O1
inactive: dose: 100.0 mg/kg/injection, schedule: Q01DX001 (ip), vehicle: other 98 % of control | dose: 200.0 mg/kg/injection, schedule: Q01DX001 (ip), vehicle: other 103 % of control | dose: 400.0 mg/kg/injection, schedule: Q01DX001 (ip), vehicle: other 97 % of control

COc1ccc(NC(=O)Nc2ccc(SC)cc2)c(Cl)c1
inactive: dose: 100.0 mg/kg/injection, schedule: Q01DX009 (ip), vehicle: Klucel (hydroxypropylcellulose) (HPC) 107 % of control | dose: 200.0 mg/kg/injection, schedule: Q01DX009 (ip), vehicle: Klucel (hydroxypropylcellulose) (HPC) 93 % of control | dose: 400.0 mg/kg/injection, schedule: Q01DX009 (ip), vehicle: Klucel (hydroxypropylcellulose) (HPC) 104 % of control

NC(CSS(=O)(=O)O)=NCCCc1ccccc1
inactive: dose: 12.5 mg/kg/injection, schedule: Q04DX002 (ip), vehicle: Klucel (hydroxypropylcellulose) (HPC) 97 % of control | dose: 25.0 mg/kg/injection, schedule: Q04DX002 (ip), vehicle: Klucel (hydroxypropylcellulose) (HPC) 108 % of control

Cc1ccc(S(=O)(=O)OCC2OC(n3cnc4c(N)ncnc43)C(O)C2O)cc1 (stereo unspecified)
inactive: dose: 100.0 mg/kg/injection, schedule: Q01DX005 (ip), vehicle: saline 105 % of control | dose: 200.0 mg/kg/injection, schedule: Q01DX005 (ip), vehicle: saline 95 % of control

CCCCCC(=O)O
inactive: dose: 100.0 mg/kg/injection, schedule: Q01DX009 (ip), vehicle: saline 100 % of control | dose: 200.0 mg/kg/injection, schedule: Q01DX009 (ip), vehicle: saline 98 % of control | dose: 400.0 mg/kg/injection, schedule: Q01DX009 (ip), vehicle: saline 89 % of control

CC(C)(C)C(=O)[CH-]C(=O)C(C)(C)C.CC(C)(C)C(=O)[CH-]C(=O)C(C)(C)C.CC(C)(C)C(=O)[CH-]C(=O)C(C)(C)C.[Er+3]
inactive: dose: 50.0 mg/kg/injection, schedule: Q04DX002 (ip), vehicle: saline with Tween-80 90 % of control | [9] 90 % of control | [10] 90 % of control | [11] 90 % of control
